Results on 11 compounds are retold here after patent US20200121716A1, “Method for Inhibiting Both Glycolysis and Glutamine Metabolism in Cells and Use Thereof” (priority 2017, published 2020).

Like-named read-outs stand apart in the source and are kept apart here.

The conditions of data set [1]: cited from earlier work.
Another data set deals with fly maggot eggs. Description: meat slice preservative experiment.
Data set [2] has as its system L-glutamate dehydrogenation. Description: spontaneous fermentation of flour paste mixed with L-glutamate. The format is cell-based. Particulars: for level of water absorbed on dry test paper: paper inserted 30 minutes, without reducing agent 5 mm.
A further data set deals with anaerobia. Put plainly: spontaneous anaerobic fermentation of flour paste sealed with rapeseed oil. As to conditions: about 7 months spontaneous fermentation, air blocked with rapeseed oil; amounts added as. The format is cell-based.
The subject of another data set is glutamine metabolism. Put plainly: spontaneous fermentation of flour paste mixed with glutamine. The format is cell-based. Particulars: about 25 °C, one hour, without reducing agent 8 to 9.
Data set [3] deals with anaerobic bacteria or facultative anaerobic bacteria. Format: cell-based.
A short description of data set [4]: trials on patients with gout, urine pH. The format is in vivo, human.
A short description of data set [5]: spraying on brown spots on the face. The format is in vivo, human. As to conditions: 5 ppm sodium selenite solution and randomly 3% aqueous sodium formate solution.
Data set [6] can be described thus: trials on patients with gastric ulcer or gastrointestinal inflammation. As to conditions: about 30 of about 80 tumor patients having gastrointestinal inflammation. Format: in vivo, human.
A further data set relates to tumors. Description: administration of reducing agents in cycles to tumor patients. Format: in vivo, human. As to conditions: advanced lung cancer, 15-month course with bevacizumab, before reducing agents.
A further data set relates to bacteria. Put plainly: preservative effect on lettuce leaf, loofah juice and celery leaf in water.
A further data set deals with fermenting microorganism. Description: flour fermentation experiment. Format: cell-based. As to conditions: second day of fermentation; without sodium selenite pH 4-5. Here is the method:
Two portions of flour (50 g each) were used for fermentation experiments. Each portion was mixed with an equal amount (about 50 g) of water, and to one of the mixtures sodium selenite having about 200 μg selenium was added. […] The same phenomenon was observed over 20 days of continuous monitoring (the contrast between flour fragrance and the acidic odor). As measured by pH test paper, the flour with sodium selenite on the second day of fermentation was slightly alkaline with a pH of 7-8, while the flour without sodium selenite was acidified after fermentation with a pH of 4-5. […] Since tumor cells and anaerobia cells have the same steps and processes of chemical reactions in glycolysis, it is believed that tumor cells would either stop metabolism and die, or change the metabolic pattern and turn into normal cells.

[7] abbreviates: evening of same day, bare meat densely covered.
The mark [8] stands for this setting: next morning, maggots appeared on untreated slice.
Setting [9] is: after 3 days, sodium formate 1 g 3 times per day, sodium oxalate 1 g per day.

For the compound `[Se]` [selenium], the safe dose result in data set [1] (oral intake) is recorded as “no more than 400 mg per day”.
For the compound `O=CO` [formic acid], in the data set on fly maggot eggs, the “fly maggot eggs on the meat slice” value is recorded as “about 5” and the “maggots on the meat slice” value was “no maggot was hatched”.
As to `O=C(O)C(=O)O` [oxalic acid], the “level of water absorbed on dry test paper” value (“level of water absorbed” below) in data set [2] is listed as “about 9 mm”. Besides, in the data set with anaerobia, the “aqueous solution above the settled flour” value is “clear and transparent”. Moreover, the “pH value of the gas in the beaker (wet pH paper)” value (from here on “pH value of the gas in the beaker”) in the data set with glutamine metabolism was “about 7.5”. In addition, the “fly maggot eggs on the meat slice” value in the data set with fly maggot eggs (setting [7]) was “about 5”. In the data set with fly maggot eggs (setting [8]), the “maggots on the meat slice” value is recorded as “no maggot was hatched”.
Turning to calcium formate, the “level of water absorbed” value in data set [2] was “about 9 mm”. In data set [3], the “effect on pH of water in the glutinous rice” value is recorded as “same effect”. The “pH value of the gas in the beaker” value in the data set with glutamine metabolism is “about 7.5”. For the same compound, the “fly maggot eggs on the meat slice” value in the data set with fly maggot eggs (setting [7]) is “about 5”. The “maggots on the meat slice” value with fly maggot eggs (setting [8]) is on record as “no maggot was hatched”.
`O=C[O-].[Na+]` [sodium formate]: in [4] (setting [9]), the “pain feeling of gout” value is “alleviated and even disappeared”. The “urine pH, hospital urine test” value in data set [4] (patient with a tumor, 1 g per day for two weeks) is 8. Further, the “colored spots in more than 10 people” value in data set [5] is reported as “faded or disappeared colored spots”. Besides, in data set [2], the “level of water absorbed” value is “about 9 mm”. For the same compound, in data set [3], the “pH of water in the glutinous rice” value is given as “slightly decreased from about 7” and the “pH value of water in the glutinous rice” value is recorded as “about 6”. For the same compound, in data set [6], the gastrointestinal discomfort result is recorded as “alleviated gastrointestinal discomfort”. For the same compound, the “pH value of the gas in the beaker” value with glutamine metabolism was “about 7.5”. In the data set on fly maggot eggs (setting [7]), the “fly maggot eggs on the meat slice” value is listed as “about 5”. Moreover, the “maggots on the meat slice” value in the data set with fly maggot eggs (setting [8]) was “no maggot was hatched”.
On to `O=C([O-])C(=O)[O-].[Na+].[Na+]` [sodium oxalate], for which, in [4] (setting [9]), the “pain feeling of gout” value is “disappeared”. In data set [4] (gout patients, after 3 days, sodium formate 1 g 3 times per day, sodium oxalate 1 g per day, 5.5 to 6 during onset), the “morning urine pH by test paper” value is on record as 7. Moreover, in data set [4] (patients with frequent gout, 1 g per day), the “pH of urine tested first in the morning” value is “increased pH”. The “level of water absorbed” value in [2] is “about 9 mm”. Moreover, in the data set with glutamine metabolism, the “pH value of the gas in the beaker” value is reported as “about 7.5”. For the same compound, in the data set with fly maggot eggs, the “fly maggot eggs on the meat slice” value is reported as “about 5” and the “maggots on the meat slice” value is given as “no maggot was hatched”.
Take bevacizumab: in the data set with tumors, the “CY211 index during course” value was “up to 28”.
`N[C@@H](CS)C(=O)O` [L-cysteine]: the “aqueous solution above the settled flour” value with anaerobia was “clear and transparent”.
Take `O=[Se](O)O` [sodium selenite]: the “pH value of the gas in the beaker” value in data set [2] (one hour, without sodium selenite 8) is “about 7.5”; with glutamine metabolism, “about 7.5”. For the same compound, in [2], the “level of water absorbed” value was 9 mm. The toxic dose in data set [1] (human, oral administration, publicly reported) was 400 mg per day. The “diameter of brown rot spot on lettuce leaf” value in the data set on bacteria (fifth day, 180 μg selenium in 80 g tap water, 15 to 20 °C, without: about 6 mm) is “about 1 mm”. Besides, in the data set with bacteria (fifth day, with sodium selenite), the “diameter of spot on loofah juice” value is “about 3 mm”. The “day a spot first appeared on the surface of loofah juice” value in the data set with bacteria (loofah juice with sodium selenite, without: about 3 mm spot on second day) came out at 3 days. For the same compound, the “pH of flour by pH test paper” value in the data set with fermenting microorganism is recorded as 7-8. Moreover, the “fly maggot eggs on the meat slice” value with fly maggot eggs stood at 5.
As for selenium dioxide, the “level of water absorbed” value in data set [2] is recorded as “about 9 mm”. Also, the “pH value of the gas in the beaker” value in the data set on glutamine metabolism is “about 7.5”. The “fly maggot eggs on the meat slice” value in the data set with fly maggot eggs (setting [7]) was “about 5”. In addition, in the data set on fly maggot eggs (setting [8]), the “maggots on the meat slice” value is listed as “no maggot was hatched”.
In the case of sodium sulfide, in the data set with fly maggot eggs, the “fly maggot eggs on the meat slice” value is “about 5” and the “maggots on the meat slice” value is recorded as “no maggot was hatched”.
